Measurements: PubChem BioAssay AID330 (DTP/NCI, 2004)
“And” between values parts separate entries of the source, which are not always exact repeats. Equal values may be shown once. Toxic doses and inconclusive results are not listed.

Test system: P388 leukemia ip, CD2F1 mice, survival T/C
Assay: NCI In Vivo Anticancer Drug Screen. Data for tumor model P388 Leukemia (intraperitoneal) in CD2F1 (CDF1) mice
Details: endpoint: median survival time, higher = longer survival
In short: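 Mice carrying the transplanted tumor received test compound or vehicle. Survival was recorded in each group, and the value is the treated-group measurement divided by that of the vehicle-treated control group.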

[1] = dose: 60.0 mg/kg/injection, schedule: Q01DX005 (ip), vehicle: saline
[2] = dose: 120.0 mg/kg/injection, schedule: Q01DX005 (ip), vehicle: saline
[3] = dose: 50.0 mg/kg/injection, schedule: Q01DX005 (ip), vehicle: saline with Tween-80
[4] = dose: 100.0 mg/kg/injection, schedule: Q01DX005 (ip), vehicle: saline with Tween-80
[5] = dose: 200.0 mg/kg/injection, schedule: Q01DX005 (ip), vehicle: saline with Tween-80
[6] = dose: 50.0 mg/kg/injection, schedule: Q01DX005 (ip), vehicle: Klucel (hydroxypropylcellulose) (HPC)
[7] = dose: 100.0 mg/kg/injection, schedule: Q01DX005 (ip), vehicle: Klucel (hydroxypropylcellulose) (HPC)
[8] = dose: 200.0 mg/kg/injection, schedule: Q01DX005 (ip), vehicle: Klucel (hydroxypropylcellulose) (HPC)
[9] = dose: 25.0 mg/kg/injection, schedule: Q04DX002 (ip), vehicle: saline
[10] = dose: 50.0 mg/kg/injection, schedule: Q01DX009 (ip), vehicle: Klucel (hydroxypropylcellulose) (HPC)
[11] = dose: 100.0 mg/kg/injection, schedule: Q01DX009 (ip), vehicle: Klucel (hydroxypropylcellulose) (HPC)
[12] = dose: 200.0 mg/kg/injection, schedule: Q01DX009 (ip), vehicle: Klucel (hydroxypropylcellulose) (HPC)
[13] = dose: 50.0 mg/kg/injection, schedule: Q01DX009 (ip), vehicle: saline
[14] = dose: 100.0 mg/kg/injection, schedule: Q01DX009 (ip), vehicle: saline
[15] = dose: 50.0 mg/kg/injection, schedule: Q01DX005 (ip), vehicle: saline
[16] = dose: 100.0 mg/kg/injection, schedule: Q01DX005 (ip), vehicle: saline
[17] = dose: 200.0 mg/kg/injection, schedule: Q01DX005 (ip), vehicle: saline
[18] = dose: 12.5 mg/kg/injection, schedule: Q04DX003 (ip), vehicle: saline with Tween-80
[19] = dose: 25.0 mg/kg/injection, schedule: Q04DX003 (ip), vehicle: saline with Tween-80
[20] = dose: 50.0 mg/kg/injection, schedule: Q04DX003 (ip), vehicle: saline with Tween-80
[21] = dose: 25.0 mg/kg/injection, schedule: Q01DX009 (ip), vehicle: saline with Tween-80
[22] = dose: 50.0 mg/kg/injection, schedule: Q01DX009 (ip), vehicle: saline with Tween-80
[23] = dose: 100.0 mg/kg/injection, schedule: Q01DX009 (ip), vehicle: saline with Tween-80
[24] = dose: 200.0 mg/kg/injection, schedule: Q01DX009 (ip), vehicle: saline with Tween-80
[25] = dose: 100.0 mg/kg/injection, schedule: Q01DX001 (ip), vehicle: saline
[26] = dose: 200.0 mg/kg/injection, schedule: Q01DX001 (ip), vehicle: saline
[27] = dose: 400.0 mg/kg/injection, schedule: Q01DX001 (ip), vehicle: saline

C=C1C2(OS(=O)(=O)C(F)(F)F)CCC(C2)C1(C)C (configuration not stated)
T/C [1]: 103 % of control
T/C [2]: 99 % of control
T/C (dose: 240.0 mg/kg/injection, schedule: Q01DX005 (ip), vehicle: saline): 100 % of control

CN1CCN(C(=O)/C(=C/c2ccccc2)NC(=O)c2ccccc2)CC1
T/C [3]: 96 % of control
T/C [4]: 95 % of control
T/C [5]: 87 % of control

CCN(CC)CCOC(=O)Cc1cccc2c(=O)cc(-c3cccs3)oc12
T/C (dose: 25.0 mg/kg/injection, schedule: Q01DX005 (ip), vehicle: Klucel (hydroxypropylcellulose) (HPC)): 106 % of control
T/C [6]: 104 % of control and 117 % of control
T/C [7]: 109 % of control
T/C [8]: 161 % of control

CC(=O)NC(Cc1cnc[nH]1)C(=O)O (configuration not stated)
T/C (dose: 100.0 mg/kg/injection, schedule: Q04DX003 (ip), vehicle: saline with Tween-80): 98 % of control
T/C (dose: 200.0 mg/kg/injection, schedule: Q04DX003 (ip), vehicle: saline with Tween-80): 99 % of control
T/C (dose: 400.0 mg/kg/injection, schedule: Q04DX003 (ip), vehicle: saline with Tween-80): 100 % of control

CCN=C(N)N/N=C(\C)c1ccc2c(c1)Cc1cc(/C(C)=N/NC(N)=NCC)ccc1-2
T/C (dose: 0.39 mg/kg/injection, schedule: Q04DX002 (ip), vehicle: saline with Tween-80): 100 % of control
T/C (dose: 0.39 mg/kg/injection, schedule: Q04DX002 (ip), vehicle: saline): 98 % of control
T/C (dose: 0.78 mg/kg/injection, schedule: Q04DX002 (ip), vehicle: saline with Tween-80): 94 % of control
T/C (dose: 0.78 mg/kg/injection, schedule: Q04DX002 (ip), vehicle: saline): 93 % of control
T/C (dose: 1.56 mg/kg/injection, schedule: Q04DX002 (ip), vehicle: saline with Tween-80): 103 % of control
T/C (dose: 1.56 mg/kg/injection, schedule: Q04DX002 (ip), vehicle: saline): 102 % of control
T/C (dose: 3.12 mg/kg/injection, schedule: Q04DX002 (ip), vehicle: saline with Tween-80): 101 % of control
T/C (dose: 3.12 mg/kg/injection, schedule: Q04DX002 (ip), vehicle: saline): 104 % of control
T/C (dose: 6.25 mg/kg/injection, schedule: Q04DX002 (ip), vehicle: saline with Tween-80): 102 % of control
T/C (dose: 6.25 mg/kg/injection, schedule: Q04DX002 (ip), vehicle: saline): 105 % of control
T/C (dose: 12.5 mg/kg/injection, schedule: Q04DX002 (ip), vehicle: saline): 105 % of control
T/C [9]: 102 % of control

N#CC1C(=O)NC(=O)C(C#N)C1c1ccc(Cl)cc1Cl (configuration not stated)
T/C [10]: 96 % of control
T/C [11]: 105 % of control
T/C [12]: 107 % of control

C[P+]1(CCc2ccc(Cl)cc2)CC=CC1
T/C [9]: 101 % of control
T/C (dose: 50.0 mg/kg/injection, schedule: Q04DX002 (ip), vehicle: saline): 101 % of control

CN1CC(O)C2=CC(=O)C(=O)C=C21 (configuration not stated)
T/C (dose: 30.0 mg/kg/injection, schedule: Q01DX005 (ip), vehicle: saline): 117 % of control
T/C [1]: 120 % of control
T/C [2]: 119 % of control

CCCCCCCCCCCCCCN1CCSCC1
T/C [13]: 101 % of control
T/C [14]: 99 % of control

CCCCn1nnc2cc(-c3c(N)nc(N)nc3CC)ccc21
T/C [6]: 87 % of control
T/C [7]: 89 % of control
T/C [8]: 89 % of control

Cc1cccc(N=Nc2ccc(N=Nc3c(O)ccc4ccccc34)cc2C)c1
T/C [10]: 97 % of control
T/C [11]: 100 % of control
T/C [12]: 100 % of control

COCCCNC(=O)c1nc2ccccc2c(=O)n1NC(=O)Cc1ccccc1
T/C [3]: 95 % of control
T/C [4]: 95 % of control
T/C [5]: 95 % of control

O=C1N[C@H]2CS(=O)(=O)C[C@H]2N1
T/C [3]: 100 % of control
T/C [4]: 104 % of control
T/C [5]: 93 % of control

CCC(c1ccc(OC)cc1)C(NCC(=O)NNC(=S)Nc1cccc(C)c1)c1ccc(OC)cc1 (configuration not stated)
T/C (dose: 100.0 mg/kg/injection, schedule: Q01DX001 (ip), vehicle: saline with Tween-80): 90 % of control
T/C (dose: 200.0 mg/kg/injection, schedule: Q01DX001 (ip), vehicle: saline with Tween-80): 96 % of control

CCN(CC)CCCN1CC2CC=CCC2C1 (configuration not stated)
T/C [15]: 98 % of control
T/C [16]: 100 % of control
T/C [17]: 105 % of control

OC1C(c2ccccc2)=C(c2ccccc2)C2(c3ccccc3)CC12c1ccccc1 (configuration not stated)
T/C [18]: 93 % of control
T/C [19]: 117 % of control
T/C [20]: 88 % of control

N=C(N)SCc1cccc(C(=O)O)c1
T/C [6]: 110 % of control
T/C [7]: 105 % of control
T/C [8]: 96 % of control

C=CCNC(=O)/C(C)=C(\C)c1ccccc1
T/C (dose: 50.0 mg/kg/injection, schedule: Q04DX002 (ip), vehicle: Klucel (hydroxypropylcellulose) (HPC)): 102 % of control
T/C (dose: 100.0 mg/kg/injection, schedule: Q04DX002 (ip), vehicle: Klucel (hydroxypropylcellulose) (HPC)): 102 % of control
T/C (dose: 200.0 mg/kg/injection, schedule: Q04DX002 (ip), vehicle: Klucel (hydroxypropylcellulose) (HPC)): 103 % of control

CCOP(O)(=S)OCC.[Ti]
T/C [10]: 96 % of control
T/C [11]: 101 % of control
T/C [12]: 92 % of control

O=[C-]C(F)(F)F.[C-]#[O+].[C-]#[O+].[C-]#[O+].[C-]#[O+].[C-]#[O+].[Mn]
T/C (dose: 50.0 mg/kg/injection, schedule: Q01DX001 (ip), vehicle: other): 100 % of control
T/C (dose: 100.0 mg/kg/injection, schedule: Q01DX001 (ip), vehicle: other): 100 % of control

C=CCN1CSC(=S)N(CC=C)C1
T/C [21]: 98 % of control
T/C [22]: 119 % of control and 94 % of control

C=C1C(=O)OC2C3CCC2C1C3 (configuration not stated)
T/C [18]: 101 % of control
T/C [19]: 115 % of control
T/C [20]: 100 % of control

O=C(CC(=O)c1ccc(Cl)c(Cl)c1)Cc1ccc2ccccc2n1
T/C (dose: 60.0 mg/kg/injection, schedule: Q01DX005 (ip), vehicle: saline with Tween-80): 90 % of control
T/C (dose: 120.0 mg/kg/injection, schedule: Q01DX005 (ip), vehicle: saline with Tween-80): 97 % of control
T/C (dose: 240.0 mg/kg/injection, schedule: Q01DX005 (ip), vehicle: saline with Tween-80): 88 % of control

O=c1[nH]c(=O)n2c(c1-c1ccccc1)OC(CBr)C2 (configuration not stated)
T/C [22]: 98 % of control
T/C [23]: 98 % of control
T/C [24]: 86 % of control

Nc1nc(N)nc(-c2cccnc2)n1
T/C [25]: 109 % of control
T/C [26]: 118 % of control
T/C [27]: 100 % of control

CN1CCN(CCCN2CC(=O)N3Cc4ccccc4CN3C(=O)C2)CC1
T/C [15]: 102 % of control
T/C [16]: 102 % of control
T/C [17]: 103 % of control

NCC(=O)O
T/C (dose: 3.75 mg/kg/injection, schedule: Q01DX005 (ip), vehicle: saline): 99 % of control
T/C (dose: 7.5 mg/kg/injection, schedule: Q01DX005 (ip), vehicle: saline): 100 % of control
T/C (dose: 15.0 mg/kg/injection, schedule: Q01DX005 (ip), vehicle: saline): 99 % of control and 94 % of control
T/C [13]: 94 % of control
T/C [14]: 105 % of control
T/C (dose: 200.0 mg/kg/injection, schedule: Q01DX009 (ip), vehicle: saline): 110 % of control

O=c1[nH]c(=O)n2ncnc2[nH]1
T/C [21]: 91 % of control
T/C [3]: 95 % of control
T/C [22]: 95 % of control
T/C [4]: 95 % of control
T/C [23]: 99 % of control
T/C [5]: 105 % of control
T/C [24]: 91 % of control

COC(=O)C1CSC(c2c(COP(=O)(O)O)cnc(C)c2O)N1 (configuration not stated)
T/C [25]: 103 % of control
T/C [26]: 105 % of control
T/C [27]: 96 % of control

CCOC(=O)N1CCc2cc3c(cc2C1Cc1ccc(OC)c(OC)c1COC(C)=O)OCO3 (configuration not stated)
T/C [3]: 100 % of control
T/C [4]: 100 % of control
T/C [5]: 89 % of control
